Experimental data from ChEMBL document CHEMBL1201862, “PubChem BioAssay data set” (2004).
Active and inactive are the calls of the source.

Legend:
[1] = control 3'UTR Renilla luciferase suppression, dose response, counter-screen for Shn3 inhibitor project, cell-based, Clone20-Shn3RL, cherry-picked (AID 624133); format: functional
[2] = Shn3 3'UTR reporter inhibitors, dose response, cell-based, Clone20 osteoblasts, firefly luciferase, cherry-picked (AID 624132); format: functional;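 further: firefly luciferase luminescence from reporter carrying the Shn3 3'UTR in osteoblasts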
[3] = HepG2 cell cytotoxicity, dose response, cytotoxicity control for Shn3 inhibitor project, CellTiter-Glo, cherry-picked (AID 624134); format: functional, cell-based
[4] = target: T1, High affinity choline transporter 1 (Homo sapiens, UniProt Q9GZV3); assay: CHT inhibitors, dose response, cell-based, 5-point CRC, membrane potential dye (AID 504840); format: functional
T1 sequence (Q9GZV3 whole entry): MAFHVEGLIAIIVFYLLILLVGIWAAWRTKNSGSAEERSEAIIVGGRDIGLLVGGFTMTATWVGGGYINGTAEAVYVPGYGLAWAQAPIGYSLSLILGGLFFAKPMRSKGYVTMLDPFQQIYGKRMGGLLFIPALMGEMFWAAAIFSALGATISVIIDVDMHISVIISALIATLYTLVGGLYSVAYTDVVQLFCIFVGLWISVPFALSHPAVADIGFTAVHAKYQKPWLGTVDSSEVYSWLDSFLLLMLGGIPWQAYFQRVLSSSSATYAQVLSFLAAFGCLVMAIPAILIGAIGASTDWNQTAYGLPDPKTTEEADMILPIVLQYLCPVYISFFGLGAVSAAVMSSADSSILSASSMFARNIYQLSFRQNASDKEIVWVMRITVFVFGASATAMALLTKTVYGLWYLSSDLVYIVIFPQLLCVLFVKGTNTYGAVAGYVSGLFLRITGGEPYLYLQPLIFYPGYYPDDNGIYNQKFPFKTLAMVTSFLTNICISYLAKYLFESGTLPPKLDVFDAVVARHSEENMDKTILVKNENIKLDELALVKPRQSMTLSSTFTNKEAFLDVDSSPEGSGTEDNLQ

[5] = target: T2, Heat shock factor protein 1 (Mus musculus, UniProt P38532); assay: HSF1 potentiators in luciferase reporter cells, confirmation, cell-based, NIH3T3, luminescence, dose retest (AID 435004); format: functional;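 further: stress induced by proteasome inhibitor MG132 added 30 min after compound; luciferase reporter driven by HSF1 response element in NIH3T3 cells; actives raise luminescence as potentiators of the MG132 stress response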
T2 sequence (P38532 whole entry): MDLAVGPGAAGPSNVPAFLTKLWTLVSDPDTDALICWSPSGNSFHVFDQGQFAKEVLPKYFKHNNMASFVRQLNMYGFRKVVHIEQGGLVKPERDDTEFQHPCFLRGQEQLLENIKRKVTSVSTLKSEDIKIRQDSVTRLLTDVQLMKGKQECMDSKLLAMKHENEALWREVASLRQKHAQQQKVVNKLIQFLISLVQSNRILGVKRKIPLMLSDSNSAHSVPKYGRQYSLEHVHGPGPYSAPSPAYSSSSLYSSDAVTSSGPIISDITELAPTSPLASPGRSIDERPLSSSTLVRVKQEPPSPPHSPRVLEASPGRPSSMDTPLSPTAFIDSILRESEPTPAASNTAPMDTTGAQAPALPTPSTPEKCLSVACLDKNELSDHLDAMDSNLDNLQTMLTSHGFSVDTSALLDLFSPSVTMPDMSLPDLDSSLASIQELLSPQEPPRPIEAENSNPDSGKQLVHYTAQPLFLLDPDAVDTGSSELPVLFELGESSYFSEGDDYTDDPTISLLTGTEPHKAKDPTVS

[6] = HEp-2 cell cytotoxicity, dose response, cytotoxicity control for RSV inhibitor project, HTS (AID 2410); format: functional; conditions: human respiratory syncytial virus
cells = format: functional
[7] = target: T3, RNA-binding protein pos-1 (Caenorhabditis elegans, UniProt G5EF15); assay: inhibitors of POS-1/mex-3 RNA binding, dose response, biochemical, fluorescence polarization (AID 1964);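 further: purified POS-1 fused to maltose binding protein made in E. coli; potency of compounds blocking POS-1 binding to fluorescent RNA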
T3 sequence (G5EF15 whole entry): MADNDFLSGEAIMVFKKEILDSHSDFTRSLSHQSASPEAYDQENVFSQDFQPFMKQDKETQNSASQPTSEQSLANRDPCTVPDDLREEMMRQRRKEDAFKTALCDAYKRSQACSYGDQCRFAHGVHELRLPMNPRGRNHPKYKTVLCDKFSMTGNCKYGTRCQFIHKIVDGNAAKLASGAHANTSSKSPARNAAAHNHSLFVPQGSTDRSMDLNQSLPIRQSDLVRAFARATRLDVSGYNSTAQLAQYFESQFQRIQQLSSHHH

[8] = target: T4, Corticotropin-releasing factor receptor 2/Corticotropin-releasing factor-binding protein (Homo sapiens, UniProt P24387+Q13324); assay: activators of CRF receptor 2 with binding protein – uHTS hits, confirmation (AID 602473); format: functional; conditions: read-out: EC50_Mean
T4 sequence (Q13324 whole entry): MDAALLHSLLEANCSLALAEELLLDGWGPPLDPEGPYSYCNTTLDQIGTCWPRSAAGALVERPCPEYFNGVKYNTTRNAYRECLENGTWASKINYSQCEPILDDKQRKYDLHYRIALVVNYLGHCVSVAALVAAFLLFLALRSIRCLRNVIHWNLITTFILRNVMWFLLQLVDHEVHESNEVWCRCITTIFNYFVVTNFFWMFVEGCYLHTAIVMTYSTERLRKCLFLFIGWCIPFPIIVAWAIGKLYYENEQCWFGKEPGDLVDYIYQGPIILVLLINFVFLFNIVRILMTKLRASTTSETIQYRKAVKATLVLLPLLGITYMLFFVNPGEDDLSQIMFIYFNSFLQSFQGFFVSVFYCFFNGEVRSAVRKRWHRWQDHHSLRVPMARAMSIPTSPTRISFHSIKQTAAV
T4 sequence (P24387 whole entry): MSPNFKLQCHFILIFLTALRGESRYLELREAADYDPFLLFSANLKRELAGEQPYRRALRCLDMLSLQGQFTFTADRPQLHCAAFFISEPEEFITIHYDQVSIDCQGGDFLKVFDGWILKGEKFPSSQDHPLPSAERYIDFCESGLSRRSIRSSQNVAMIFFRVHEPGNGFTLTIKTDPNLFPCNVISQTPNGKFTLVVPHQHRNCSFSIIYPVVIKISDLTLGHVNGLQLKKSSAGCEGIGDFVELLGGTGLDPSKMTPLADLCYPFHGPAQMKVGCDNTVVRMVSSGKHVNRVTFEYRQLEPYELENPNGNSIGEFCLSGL

[9] = target: T5, Zinc finger protein mex-5 (Caenorhabditis elegans, UniProt Q9XUB2); assay: MEX-5/TCR-2 RNA interaction inhibitors, dose response, biochemical, C. elegans, fluorescence polarization (AID 1960)
T5 sequence (Q9XUB2 whole entry): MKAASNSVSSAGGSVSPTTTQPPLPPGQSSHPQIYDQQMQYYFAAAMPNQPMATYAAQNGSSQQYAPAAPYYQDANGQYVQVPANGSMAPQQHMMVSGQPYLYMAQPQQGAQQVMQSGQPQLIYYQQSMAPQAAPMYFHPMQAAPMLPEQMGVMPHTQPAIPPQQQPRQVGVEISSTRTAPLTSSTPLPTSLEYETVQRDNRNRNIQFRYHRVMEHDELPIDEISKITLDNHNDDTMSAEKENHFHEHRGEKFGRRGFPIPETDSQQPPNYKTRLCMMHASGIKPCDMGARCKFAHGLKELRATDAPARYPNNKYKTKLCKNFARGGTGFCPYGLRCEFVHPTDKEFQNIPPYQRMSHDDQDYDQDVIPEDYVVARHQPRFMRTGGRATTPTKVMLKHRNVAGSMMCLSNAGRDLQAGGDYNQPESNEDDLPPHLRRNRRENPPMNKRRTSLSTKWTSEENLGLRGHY

[10] = target: T2, Heat shock factor protein 1; assay: inhibition of MG132-induced HSE-luciferase signal, confirmation, cell-based, NIH3T3, luminescence, dose retest (AID 2382); format: functional;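 further: NIH3T3 fibroblasts with HSF1-driven luciferase reporter stressed by proteasome inhibitor MG132; luminescence from HSF1-driven luciferase expression after 8 hours of MG132 stress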
[11] = target: FAD-linked sulfhydryl oxidase ALR (Homo sapiens, UniProt P55789); assay: inhibitors of human ALR sulfhydryl oxidase, dose response, biochemical, H2O2 detection, luminescence, cherry-pick (AID 493248)
[12] = Luminescence Cell-Based Dose Response HTS to Identify Inhibitors of 5'UTR Stem-Loop Driven Prion Protein mRNA Translation in H4 Neuroglioblastoma Cells. [Related pubchem assays: 1827 (Project Summary), 1813 (Primary HTS)]; format: functional
[13] = inhibitors of firefly luciferase expression or activity, dose response, H4 neuroglioma cells, luminescence (AID 1990); format: functional, cell-based
[14] = inhibitors of SNCA 5'UTR-driven reporter translation, confirmation, H4 neuroglioma cells, luminescence (AID 1988); format: functional, cell-based
[15] = inhibitors of intracellular T. cruzi replication, confirmation, NIH3T3 host cells, beta-gal luminescence (AID 2044); format: functional, cell-based;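 further: intracellular parasites grown in NIH/3T3 mouse fibroblasts as host cells; luminescent beta-galactosidase reporter signal from transgenic T. cruzi replicating inside host cells; inhibitors lower the luminescence signal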
[16] = cytotoxicity toward NIH3T3 fibroblasts, dose response, counter-screen, cell-based, ATP luminescence, mouse fibroblasts (AID 2010); format: functional;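 further: cells exposed to compound for about 90 hours before reading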
[17] = target: T4, Corticotropin-releasing factor receptor 2/Corticotropin-releasing factor-binding protein; assay: Dose Response confirmation of uHTS hits for small molecule antagonists of the CRF-binding protein and CRF-R2 receptor complex.; format: functional; conditions: read-out: IC50_Mean

FAD-linked sulfhydryl oxidase ALR, sequence (P55789 whole entry): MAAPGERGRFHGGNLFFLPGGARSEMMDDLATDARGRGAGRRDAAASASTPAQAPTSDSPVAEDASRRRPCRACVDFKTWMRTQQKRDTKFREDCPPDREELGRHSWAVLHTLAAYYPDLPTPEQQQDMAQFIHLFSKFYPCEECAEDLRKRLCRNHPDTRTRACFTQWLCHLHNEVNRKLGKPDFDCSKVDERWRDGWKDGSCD

Structure (SMILES): CC1CCN(Cc2ccc(-c3nnn(CC(=O)Nc4ccccc4Cl)n3)cc2)CC1
- AC50 [1]: 3.25 µM (active)
- AC50 [2]: 1.77 µM (active)
- AC50 [3]: > 70 µM (inactive)

Structure (SMILES): O=C(O)c1cnn(-c2nc(-c3cccc([N+](=O)[O-])c3)cs2)c1C(F)(F)F
- IC50 [4]: 11 µM (active)
- EC50 [5]: > 260 µM (inactive)
- CC50 [6]: 37.9 µM (active)

Structure (SMILES): COc1cccc(COC(=O)CCNC(=O)c2ccc(Br)cc2)c1OC
- IC50 (cells): 15.4 µM (active)

Structure (SMILES): Cc1ccc(/C(O)=C/c2nc3ccccc3oc2=O)cc1
- EC50 [7]: > 300 µM (inconclusive)
- EC50 [8]: 11.4 µM (active)
- IC50 (cells): 4.72 µM (active)
- EC50 [9]: > 300 µM (inconclusive)

Structure (SMILES): O=C(CCc1ccccc1)NC1C2CC3CC(C2)CC1C3 (centres undefined)
- IC50 (cells): 18.6 µM (active)

Structure (SMILES): CCOc1ccc(NC(=O)COC(=O)C2(C)CC2(Cl)Cl)c([N+](=O)[O-])c1 (centres undefined)
- IC50 (cells): 38.4 µM (active)
- EC50 [10]: > 195 µM (not active)

Structure (SMILES): CC(=O)Nc1ccc(S(=O)(=O)N2CCC(c3nc4cc(C)ccc4[nH]3)CC2)cc1
- CC50 [6]: 15.4 µM (active)

Structure (SMILES): Cc1cc(C)n(CCC(=O)N2CCCC(Nc3ccc(F)cc3)C2)n1 (centres undefined)
- AC50 [11]: 33.3 µM (active)

Structure (SMILES): CCCCN(c1nc2ccccc2nc1Cl)S(=O)(=O)c1ccc(C)cc1
- AC50 [1]: 30.7 µM (active)
- AC50 [2]: 7.22 µM (active)
- AC50 [3]: > 70 µM (inactive)

Structure (SMILES): N#CC1CCCc2c1[nH]c1ccc([N+](=O)[O-])cc21 (centres undefined)
- EC50 [12]: > 120 µM (not active)
- EC50 [13]: 11.7 µM (active)
- EC50 [14]: 24.5 µM (active)
- CC50 [6]: 27.8 µM (active)

Structure (SMILES): COc1ccc(N2CCN(C(=O)Cc3ccc(C)cc3)CC2)cc1
- AC50 [11]: 5.48 µM (active)

Structure (SMILES): Cc1ccc(S(=O)(=O)Nc2ccc3ncccc3c2)cc1
- AC50 [1]: 29.3 µM (active)
- AC50 [2]: 2.2 µM (active)
- AC50 [3]: 45.9 µM (active)

Structure (SMILES): COc1ccc(N2CCN(C(=O)CN3CCN(c4nc(-c5ccc(F)cc5)cs4)CC3)CC2)cc1
- AC50 [1]: 1.16 µM (active)
- AC50 [2]: 1.81 µM (active)
- AC50 [3]: 58 µM (active)

Structure (SMILES): Cc1cc(C)nc(Nc2n[nH]c(-c3ccc(N)cc3)n2)n1
- AC50 [11]: 0.311 µM (active)

Structure (SMILES): Sc1nnc(-c2ccccn2)n1/N=C/c1ccc(Br)s1
- AC50 [11]: 10.5 µM (active)

Structure (SMILES): Cc1cc(NS(=O)(=O)c2ccccc2)c(C)c(Cl)c1O
- CC50 [6]: 8.98 µM (active)

Structure (SMILES): CCN(CC)CC(=O)Nc1ccc2c(c1)Nc1ccccc1CC2
- AC50 [11]: 0.221 µM (active)

Structure (SMILES): COc1ccc(N(C)C(=O)c2cc3c(s2)-c2ccccc2OC3)c(OC)c1
- CC50 [6]: 48.3 µM (active)

Structure (SMILES): COc1ccc(C2=NS(=O)(=O)N(C)C(C(=O)N3CCc4ccccc4C3)=C2)cc1OC
- AC50 [1]: 4.43 µM (active)
- AC50 [2]: 4.99 µM (active)
- AC50 [3]: 69.3 µM (active)

Structure (SMILES): NC(=O)COC(=O)c1ccc(Cl)c(S(=O)(=O)N2CCN(c3ccc(F)cc3)CC2)c1
- IC50 [4]: 13.8 µM (active)

Structure (SMILES): CN(c1cccc(NC(=O)CN(c2ccc(C34CC5CC(CC(C5)C3)C4)cc2)S(C)(=O)=O)c1)S(C)(=O)=O
- EC50 [15]: 1.6 µM (active)
- AC50 [1]: 7.86 µM (active)
- EC50 [16]: 7.81 µM (active)
- AC50 [2]: 7.58 µM (active)
- AC50 [3]: 31.2 µM (active)

Structure (SMILES): CC(CN1CCN(c2ccccc2)CC1)c1ccccc1 (centres undefined)
- AC50 [11]: 66.9 µM (active)

Structure (SMILES): CSc1ccc(CNc2ncc(-c3cccc([N+](=O)[O-])c3)n2C)cc1
- IC50 (cells): 21.8 µM (active)

Structure (SMILES): NC(=NO)c1ccccc1N1CCC(Cc2ccccc2)CC1
- AC50 [11]: 27.4 µM (active)

Structure (SMILES): Cc1ccc(C(=O)N2c3ccccc3N(Cc3ccccc3)C(=O)C2(C)C)cc1
- EC50 [8]: > 53 µM (inactive)
- AC50 [1]: 4.11 µM (active)
- IC50 [17]: 5.66 µM (active)
- AC50 [2]: 6.92 µM (active)
- AC50 [3]: > 70 µM (inactive)

Structure (SMILES): CC1CCCCC1NC(=O)c1cccc(N2C(=O)C3C4C=CC(C4)C3C2=O)c1 (centres undefined)
- IC50 [4]: 14.5 µM (active)

Structure (SMILES): O=C(O)c1ccc(Sc2nnc(-c3cccc(Br)c3)o2)c([N+](=O)[O-])c1
- AC50 [11]: 0.044 µM (active)
